The source of these data is publication PMC4494750 (Journal of medicinal chemistry, 2011).

Series [1] relates to P. falciparum pansensitive D6. As to the kind of experiment: In vitro antimalarial activity: P. falciparum growth inhibition. It counts as cell-based. As to conditions: Plasmodium falciparum, D6, 72 h, read-out: IC50 (nM) D6.
The subject of a further series is P. berghei. As to conditions: subcutaneous injection, mice; without cure or at doses resulting in more toxic deaths than cures; ref 7a, 7e, 7b, 16; cited from earlier work.
The subject of a further series is P. cynomolgi. As to conditions: oral treatment, even at toxic doses; ref 7c; cited from earlier work.
For a further series, the system named is P. yoelii-Kenya. As to the kind of experiment: In vivo antimalarial efficacy: P. yoelii murine patent infection. Also noted: species or system P. yoelii in CF-1 mice. As to conditions: for weight loss or toxicity: 5 mg/kg/day by gavage.
[2] abbreviates: 25 mg/kg/day by gavage, parasite-free for 28 days.

Counter-ions that a name gives are not always drawn.

On to `CCN(CC)CCCC(C)Nc1ccnc2cc(Cl)ccc12` (stereo not shown) [CQ, chloroquine], for which the IC50 in series [1] came to 11 nM.
Consider `CCCCCC1=C/C(=C/c2[nH]c(-c3ccc[nH]3)cc2OC)N=C1C` [Compound 1, prodigiosin], for which the effect on survival entry in the series with P. berghei is “extend survival”. Further, the antimalarial activity result in the series on P. cynomolgi was “completely ineffective”.
Consider `CCCCCCCCCCCC1=N/C(=C\c2[nH]c(-c3ccc[nH]3)cc2OC)C=C1` [Compound 2, undecylprodiginine], for which, in the series with P. berghei, the effect on survival entry is recorded as “extend survival”.
Turning to `CCC1CCCCCCCCC2=N/C(=C\c3[nH]c(-c4ccc[nH]4)cc3OC)C1=C2` (stereo not shown) [Compound 3, metacycloprodiginine], in the series with P. yoelii-Kenya (100 mg/kg/day by gavage), the parasite clearance result is recorded as “complete” and the weight loss entry is “temporary weight loss”. The mice cured entry in the series on P. yoelii-Kenya (100 mg/kg/day by gavage, parasite-free for 28 days) is “three of four”. The molecule further gave a parasitemia in the series with P. yoelii-Kenya (initial proof-of-principle testing, 25 mg/kg/day by gavage, 54.1% in controls) of 0.28%. In addition, the effect on survival result in the series on P. berghei is recorded as “extend survival”.
As for `COC1=CC(c2ccc[nH]2)=N/C1=C\c1[nH]ccc1Cc1ccc(Cl)cc1` [Compound 41], the “weight loss or toxicity” value in the series on P. yoelii-Kenya is listed as “without any evidence of weight loss or toxicity”.
On to `CCCCCCCCc1cc(CCC)c(/C=C2\N=C(c3ccc[nH]3)C=C2OC)[nH]1` [Compound 48, 4′-methoxy-5′-(5-octyl-3-propyl-1H-pyrrol-2-ylmethylene)-1H,5′H-[2,2′]bipyrrolyl, hydrochloride], for which the “weight loss or toxicity” value in the series on P. yoelii-Kenya is “without any evidence of weight loss or toxicity”.
As to `CCCc1cc(CCC2CCCCC2)c(/C=C2\N=C(c3ccc[nH]3)C=C2OC)[nH]1` [Compound 49], the “weight loss or toxicity” value in the series with P. yoelii-Kenya is given as “without any evidence of weight loss or toxicity”.
Consider `CCCc1cc(Cc2ccc(Cl)cc2)c(/C=C2\N=C(c3ccc[nH]3)C=C2OC)[nH]1` [Compound 57], for which the “weight loss or toxicity” value with P. yoelii-Kenya is given as “without any evidence of weight loss or toxicity”.
`CCCCCCc1cc(Cc2ccc(Cl)cc2)c(/C=C2\N=C(c3ccc[nH]3)C=C2OC)[nH]1` [Compound 58]: the “weight loss or toxicity” value in the series with P. yoelii-Kenya is “without any evidence of weight loss or toxicity”. For the same molecule, the “cures in treated group” value in the series on P. yoelii-Kenya (setting [2]) is “one cure”.
With `CCCCCCCCc1cc(Cc2ccc(Cl)cc2)c(/C=C2\N=C(c3ccc[nH]3)C=C2OC)[nH]1` [Compound 60], in the series on P. yoelii-Kenya, the “weight loss or toxicity” value is on record as “without any evidence of weight loss or toxicity”. Besides, the “cures in treated group” value in the series on P. yoelii-Kenya (setting [2]) is on record as “one cure”.
Consider `COC1=CC(c2ccc[nH]2)=N/C1=C\c1[nH]c(Cc2ccc(Cl)cc2)cc1Cc1ccc(Cl)cc1` [Compound 66], for which the “weight loss or toxicity” value in the series on P. yoelii-Kenya is listed as “without any evidence of weight loss or toxicity”. The “weight loss or clinical overt toxicity” value with P. yoelii-Kenya (25 mg/kg/day by gavage) was “without any evident weight loss or clinical overt toxicity”.
As to `CCCCCCCc1cc(/C=C2\N=C(c3ccc[nH]3)C=C2OC)[nH]c1C` [Compound 76, heptylprodigiosin], the effect on survival result with P. berghei is “extend survival”.
On to `CCCC[C@H]1CCCCCCc2[nH]c(/C=C3\N=CC(c4ccc[nH]4)=C3OC)cc21` [Compound 77, butylcycloheptylprodiginine], for which the effect on survival result with P. berghei is “extend survival”.
For the molecule cyclononylprodiginine [Compound 78], the effect on survival entry with P. berghei is on record as “extend survival”.
